Data taken from ChEMBL document CHEMBL1201862, “PubChem BioAssay data set” (2004).
Active and inactive are the calls of the source.

Columns and labels:
[1] = tested on: Vibrio harveyi; assay: Quorum Sensing, LuxS, LuxPQ Measured in Microorganism System Using Plate Reader - 2035-01_Inhibitor_DoseNoFile_DryPowder_Activity. [Related pubchem assays (depositor defined):AID2106]; format: functional, organism-based
[2] = tested on: Vibrio harveyi; assay: inhibitors of AI-2 quorum sensing in V. harveyi, dose response, LuxS, LuxPQ, dry powder, set 2 (AID 493072); format: functional, organism-based
[3] = target: T1, Protein RecA (Mycobacterium tuberculosis, UniProt P9WHJ3); assay: Fluorescence Cell-Free Homogeneous Dose Retest to Identify Inhibitors of RecA-Intein Splicing Activity. [Related pubchem assays (depositor defined):AID2097, AID2223, AID489010, AID492950]; format: functional
T1 sequence (P9WHJ3 whole entry): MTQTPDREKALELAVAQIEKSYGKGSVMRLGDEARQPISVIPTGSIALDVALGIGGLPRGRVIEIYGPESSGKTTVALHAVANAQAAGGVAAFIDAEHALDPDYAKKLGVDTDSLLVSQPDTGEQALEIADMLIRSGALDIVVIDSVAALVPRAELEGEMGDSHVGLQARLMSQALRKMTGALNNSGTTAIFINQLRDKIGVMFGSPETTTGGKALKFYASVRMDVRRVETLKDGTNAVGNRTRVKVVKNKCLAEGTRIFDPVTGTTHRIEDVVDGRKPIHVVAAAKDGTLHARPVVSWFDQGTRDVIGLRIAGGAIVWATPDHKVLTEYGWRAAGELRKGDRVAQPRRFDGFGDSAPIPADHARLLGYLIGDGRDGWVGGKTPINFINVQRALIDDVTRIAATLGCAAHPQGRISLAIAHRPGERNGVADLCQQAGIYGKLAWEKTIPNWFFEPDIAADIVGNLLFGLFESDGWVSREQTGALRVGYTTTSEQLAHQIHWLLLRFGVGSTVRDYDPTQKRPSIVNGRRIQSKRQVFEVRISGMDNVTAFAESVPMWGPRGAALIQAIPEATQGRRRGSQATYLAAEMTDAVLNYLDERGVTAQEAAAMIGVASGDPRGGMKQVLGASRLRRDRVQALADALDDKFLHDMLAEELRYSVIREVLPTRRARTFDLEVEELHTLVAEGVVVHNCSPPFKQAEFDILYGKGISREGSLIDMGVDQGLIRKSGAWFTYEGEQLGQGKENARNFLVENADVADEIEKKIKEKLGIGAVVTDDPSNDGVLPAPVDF

[4] = target: T2, Replicative DNA helicase DnaB (Mycobacterium tuberculosis, UniProt P9WMR3); assay: DnaB intein splicing inhibitors, dose response, biochemical, cell-free fluorescence (AID 449749); format: functional
T2 sequence (P9WMR3 whole entry): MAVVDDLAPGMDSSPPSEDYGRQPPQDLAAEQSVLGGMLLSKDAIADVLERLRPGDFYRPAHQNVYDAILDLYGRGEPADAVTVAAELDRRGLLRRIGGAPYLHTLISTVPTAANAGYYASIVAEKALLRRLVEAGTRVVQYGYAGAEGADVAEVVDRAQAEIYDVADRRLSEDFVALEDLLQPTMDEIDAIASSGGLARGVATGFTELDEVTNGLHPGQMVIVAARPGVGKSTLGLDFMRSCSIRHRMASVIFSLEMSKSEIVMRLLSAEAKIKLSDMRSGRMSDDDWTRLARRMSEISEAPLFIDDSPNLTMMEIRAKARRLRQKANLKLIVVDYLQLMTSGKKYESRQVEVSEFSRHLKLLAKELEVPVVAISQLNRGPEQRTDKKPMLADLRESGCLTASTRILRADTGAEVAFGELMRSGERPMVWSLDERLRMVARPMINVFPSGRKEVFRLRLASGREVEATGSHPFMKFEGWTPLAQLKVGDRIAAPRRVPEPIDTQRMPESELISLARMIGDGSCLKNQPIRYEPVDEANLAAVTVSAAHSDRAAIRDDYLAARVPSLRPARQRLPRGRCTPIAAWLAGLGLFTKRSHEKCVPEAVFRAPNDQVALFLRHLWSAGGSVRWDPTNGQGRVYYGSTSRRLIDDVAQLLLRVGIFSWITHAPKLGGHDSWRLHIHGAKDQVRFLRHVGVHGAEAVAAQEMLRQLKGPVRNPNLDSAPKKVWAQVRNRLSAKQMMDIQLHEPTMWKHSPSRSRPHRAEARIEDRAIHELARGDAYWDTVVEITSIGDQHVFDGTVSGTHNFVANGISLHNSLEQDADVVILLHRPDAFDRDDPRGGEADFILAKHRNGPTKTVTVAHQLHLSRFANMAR

[5] = target: T3, Leucine aminopeptidase (Plasmodium falciparum 3D7, UniProt Q8IL11); assay: P. falciparum M17LAP inhibitors, primary screen, biochemical, fluorogenic H-Leu-NHMec substrate, 1536-well (AID 1619); format: functional
T3 sequence (Q8IL11 whole entry): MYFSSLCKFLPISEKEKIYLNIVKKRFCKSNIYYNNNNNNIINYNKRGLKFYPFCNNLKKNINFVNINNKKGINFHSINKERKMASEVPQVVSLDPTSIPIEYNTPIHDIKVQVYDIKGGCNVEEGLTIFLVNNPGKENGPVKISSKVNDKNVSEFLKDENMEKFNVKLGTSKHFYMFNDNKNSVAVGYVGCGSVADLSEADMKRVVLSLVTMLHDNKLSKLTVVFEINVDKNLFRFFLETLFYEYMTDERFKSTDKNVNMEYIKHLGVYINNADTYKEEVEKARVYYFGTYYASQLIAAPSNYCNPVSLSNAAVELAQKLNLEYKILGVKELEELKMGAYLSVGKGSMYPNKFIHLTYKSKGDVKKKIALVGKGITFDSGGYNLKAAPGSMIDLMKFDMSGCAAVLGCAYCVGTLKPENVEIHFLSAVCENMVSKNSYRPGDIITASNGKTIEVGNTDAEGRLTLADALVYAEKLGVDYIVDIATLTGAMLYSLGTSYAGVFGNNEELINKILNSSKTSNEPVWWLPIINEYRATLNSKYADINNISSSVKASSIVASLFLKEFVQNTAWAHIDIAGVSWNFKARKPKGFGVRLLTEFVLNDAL

[6] = Intein inhibitors as potential Tuberculosis drugs, a cytotoxicity screen. [Related pubchem assays (depositor defined):AID2221, AID2223, AID434968, AID435010, AID449749, AID449750, AID489010]; format: functional
[7] = tested on: T-cell; assay: inhibitors of CD8+ T cell–vesicle binding, dose response, mouse 2C CD8+ T cells, flow cytometry (AID 485284); format: functional
[8] = target: DNA damage-inducible transcript 3 protein (Mus musculus, UniProt P35639); format: functional, Cricetulus griseus
Sequence of DNA damage-inducible transcript 3 protein (P35639 whole entry): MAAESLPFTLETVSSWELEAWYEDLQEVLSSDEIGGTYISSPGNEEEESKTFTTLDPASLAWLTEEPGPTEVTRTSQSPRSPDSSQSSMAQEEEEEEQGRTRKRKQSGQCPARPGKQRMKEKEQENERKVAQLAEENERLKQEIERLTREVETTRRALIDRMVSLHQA

[9] = A549 cell cytotoxicity, dose response, cytotoxicity control, plate reader, cherry-pick, antagonist series (AID 743412); format: functional, cell-based
[10] = target: T4, Streptokinase A (Streptococcus pyogenes serotype M1, UniProt P10520); assay: S. pyogenes streptokinase expression inhibitors, potency, dose response, plasminogen activation absorbance, OD405 (AID 1914); format: functional, Streptococcus pyogenes M1 GAS;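 also: secreted streptokinase activity via plasminogen activation per viability signal from cell pellet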
T4 sequence (P10520 whole entry): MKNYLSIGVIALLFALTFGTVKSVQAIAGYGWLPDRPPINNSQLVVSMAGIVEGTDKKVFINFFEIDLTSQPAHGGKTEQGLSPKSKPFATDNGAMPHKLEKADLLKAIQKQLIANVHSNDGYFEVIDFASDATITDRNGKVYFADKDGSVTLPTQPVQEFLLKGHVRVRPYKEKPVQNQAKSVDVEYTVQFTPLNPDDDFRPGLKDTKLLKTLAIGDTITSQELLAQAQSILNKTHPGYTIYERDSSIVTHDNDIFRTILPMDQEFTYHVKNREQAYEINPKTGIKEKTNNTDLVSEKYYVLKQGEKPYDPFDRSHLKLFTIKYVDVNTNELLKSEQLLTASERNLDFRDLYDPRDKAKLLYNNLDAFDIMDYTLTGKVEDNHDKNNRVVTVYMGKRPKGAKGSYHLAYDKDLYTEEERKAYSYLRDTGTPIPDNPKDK

[11] = LGR2 antagonists, dose response, cell-based, HEK293, CRE-luciferase reporter, cherry pick, set 2 (AID 743343); format: functional;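 also: transfected cells were stimulated with diluted bursicon conditioned medium after compound addition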
[12] = tested on: INS1; assay: beta cell apoptosis inhibitors, cytokine rescue, dose response, luminescence, retest (AID 449756); format: functional, cell-based; conditions: Rattus norvegicus;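 also: cell death triggered by IL-1 beta plus TNF-alpha plus IFN-gamma mixture; protective hits raise ATP signal compared with cytokine alone wells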
[13] = HEK293 cell cytotoxicity, dose response, cytotoxicity control, plate reader, cherry-picked samples (AID 743446); format: functional, cell-based
[14] = target: T5, Type-1 angiotensin II receptor (Homo sapiens, UniProt P30556); assay: AT1 receptor agonists, dose response, selectivity assay for APJ receptor agonist project, cell-based, uHTS hits (AID 488865); format: functional;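 also: beta-arrestin recruitment to AT1 measured by enzyme fragment complementation luminescence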
T5 sequence (P30556 whole entry): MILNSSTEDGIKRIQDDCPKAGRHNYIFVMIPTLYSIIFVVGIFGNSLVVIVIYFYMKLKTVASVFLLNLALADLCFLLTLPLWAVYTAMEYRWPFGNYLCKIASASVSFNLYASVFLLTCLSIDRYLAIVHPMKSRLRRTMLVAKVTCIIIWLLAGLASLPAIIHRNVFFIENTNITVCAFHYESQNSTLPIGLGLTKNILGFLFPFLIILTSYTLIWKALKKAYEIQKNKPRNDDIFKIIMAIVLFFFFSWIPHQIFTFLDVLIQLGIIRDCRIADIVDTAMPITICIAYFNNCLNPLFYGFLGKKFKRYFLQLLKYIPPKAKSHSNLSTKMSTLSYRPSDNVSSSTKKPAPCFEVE

[15] = HepG2 cell cytotoxicity, dose response, cytotoxicity control, plate reader, cherry-pick, antagonist series (AID 743416); format: functional, cell-based
[16] = tested on: Streptococcus sp. 'group A'; assay: growth inhibition of control SK(-) GAS strain, dose response, counter-screen for streptokinase expression inhibitor project, luminescence, kanamycin, BacTiterGlo, confirmation (AID 1900); format: functional, organism-based
[17] = tested on: Streptococcus; assay: Group A Streptococcus viability loss, dose response, counter-screen for streptokinase expression inhibitor project, luminescence, BacTiterGlo (AID 1915); format: functional, organism-based;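 also: potency for reduction of bacterial viability or growth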
[18] = MC4R antagonists, dose response, counter-screen for LGR2 antagonist project, cell-based, plate reader, cherry pick (AID 743444); format: functional;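 also: transfected HEK 293 cells stimulated with alpha-MSH peptide; potency of inhibitors of the alpha-MSH evoked signal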
[19] = target: T6, Cannabinoid receptor 2 (Homo sapiens, UniProt P34972); assay: SAR analysis of antagonists of the Cannabinoid Receptor 2 using an Image-Based Assay - Set 2. [Related pubchem assays (depositor defined):AID1961, AID1965]; format: functional
T6 sequence (P34972 whole entry): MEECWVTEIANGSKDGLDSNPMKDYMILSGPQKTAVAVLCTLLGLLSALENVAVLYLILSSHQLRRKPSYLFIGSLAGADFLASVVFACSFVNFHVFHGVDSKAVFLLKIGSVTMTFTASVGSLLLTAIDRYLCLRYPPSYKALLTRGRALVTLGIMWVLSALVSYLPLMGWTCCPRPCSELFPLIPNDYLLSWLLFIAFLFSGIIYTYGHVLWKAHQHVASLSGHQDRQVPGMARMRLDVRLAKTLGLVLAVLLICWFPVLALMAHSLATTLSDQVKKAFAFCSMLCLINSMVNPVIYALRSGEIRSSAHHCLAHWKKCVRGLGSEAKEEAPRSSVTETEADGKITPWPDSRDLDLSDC

[20] = target: T6, Cannabinoid receptor 2; assay: SAR analysis of agonists of the Cannabinoid Receptor 2 using an Image-Based Assay - Set 2. [Related pubchem assays (depositor defined):AID1961, AID1965]; format: functional
[21] = target: T7, G-protein coupled receptor 35 (Homo sapiens, UniProt Q9HC97); assay: SAR analysis of Antagonists of the GPR35 Receptor using an Image-Based Assay - Set 4. [Related pubchem assays (depositor defined):[…]]; format: functional
T7 sequence (Q9HC97 whole entry): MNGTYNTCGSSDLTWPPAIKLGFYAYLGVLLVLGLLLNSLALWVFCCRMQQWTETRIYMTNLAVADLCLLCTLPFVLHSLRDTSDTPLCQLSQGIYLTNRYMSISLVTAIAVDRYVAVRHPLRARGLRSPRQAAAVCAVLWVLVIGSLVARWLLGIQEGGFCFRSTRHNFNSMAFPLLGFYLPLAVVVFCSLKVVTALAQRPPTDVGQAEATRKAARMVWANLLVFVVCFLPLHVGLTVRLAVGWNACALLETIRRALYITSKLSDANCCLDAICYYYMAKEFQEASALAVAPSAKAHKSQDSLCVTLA

[22] = target: T8, Cannabinoid receptor 1 (Homo sapiens, UniProt P21554); assay: SAR analysis of agonists of the Cannabinoid Receptor 1 using an Image-Based Assay - Set 3. [Related pubchem assays (depositor defined):AID1961, AID1965]; format: functional
T8 sequence (P21554 whole entry): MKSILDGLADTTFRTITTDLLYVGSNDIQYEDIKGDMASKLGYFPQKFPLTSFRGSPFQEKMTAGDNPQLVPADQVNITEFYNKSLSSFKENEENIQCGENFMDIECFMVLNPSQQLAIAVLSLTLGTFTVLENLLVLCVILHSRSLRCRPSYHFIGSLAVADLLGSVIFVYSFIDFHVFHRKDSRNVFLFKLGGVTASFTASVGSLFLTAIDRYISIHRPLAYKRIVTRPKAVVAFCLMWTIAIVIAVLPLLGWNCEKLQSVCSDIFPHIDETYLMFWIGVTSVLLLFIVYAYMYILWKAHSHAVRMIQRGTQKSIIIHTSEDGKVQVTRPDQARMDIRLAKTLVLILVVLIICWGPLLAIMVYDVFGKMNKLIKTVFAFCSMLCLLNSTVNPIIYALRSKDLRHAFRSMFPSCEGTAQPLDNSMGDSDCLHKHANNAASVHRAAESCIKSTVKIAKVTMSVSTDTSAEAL

[23] = target: T7, G-protein coupled receptor 35; assay: SAR analysis of Agonists of the GPR35 Receptor using an Image-Based Assay - Set 3. [Related pubchem assays (depositor defined):AID1961, AID1965]; format: functional
[24] = target: T8, Cannabinoid receptor 1; assay: SAR analysis of antagonists of the Cannabinoid Receptor 1 using an Image-Based Assay - Set 3. [Related pubchem assays (depositor defined):AID1961, AID1965]; format: functional
[25] = target: G-protein coupled receptor 55 (Homo sapiens, UniProt Q9Y2T6); assay: SAR analysis of selective Agonists of GPR55 using an Image-Based Assay - Set 2. [Related pubchem assays (depositor defined):AID1961, AID1965]; format: functional
Sequence of G-protein coupled receptor 55 (Q9Y2T6 whole entry): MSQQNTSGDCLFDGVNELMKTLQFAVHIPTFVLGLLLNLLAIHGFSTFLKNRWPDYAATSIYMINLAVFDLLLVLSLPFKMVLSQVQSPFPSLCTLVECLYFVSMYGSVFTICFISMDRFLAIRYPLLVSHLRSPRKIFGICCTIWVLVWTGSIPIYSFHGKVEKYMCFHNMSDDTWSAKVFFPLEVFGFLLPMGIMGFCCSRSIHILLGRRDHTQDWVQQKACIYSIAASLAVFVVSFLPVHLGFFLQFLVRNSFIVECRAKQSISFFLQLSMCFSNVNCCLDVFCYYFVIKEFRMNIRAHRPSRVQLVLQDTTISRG
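For CC50 in this document: cells exposed to compound for 72 hours before luminescence readout.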

## O=C1C=C/C(=C/Br)O1
[1]
  AC50: 4.81 µM (active)
[2]
  AC50: 3.1 µM (active)

## N#CC1=C(N)Oc2[nH]nc(-c3ccccc3)c2C1c1ccsc1 (stereo not given)
[3]
  EC50: 0.731 µM (active)
[4]
  AC50: 0.142 µM (active)
[5]
  IC50: 64.5 µM (active)
[6]
  CC50: > 40 µM (active)

## CN(Cc1ccccc1)C(=O)c1ccc(NC(=O)Cc2cccc(NC(=O)C3CCCN(C(=O)C4CCC4)C3)c2)cc1 (stereo not given)
[7]
  EC50: 5.41 µM (active)

## O=C(Cc1csc(Nc2nc(S)nc3ccccc23)n1)NCCCN1CCN(c2ccccc2F)CC1
[8]
  Absolute IC50 (CHOP): 10 µM

## CCCCNc1c(-c2cccc(-c3ccc(OC)cc3)c2)nc2ccc(C)cn12
[9]
  AC50: 28.7 µM (active)
[10]
  EC50: 7.94 µM (active)
[11]
  AC50: 10.7 µM (active)
[12]
  AC50: 7.86 µM (active)
[13]
  AC50: 29.6 µM (active)
[14]
  EC50: > 100 µM (inactive)
[15]
  AC50: 28.4 µM (active)
[16]
  EC50: 4.54 µM (active)
[17]
  EC50: 13.3 µM (active)
[18]
  AC50: 11 µM (active)

## COc1ccc(-c2csc(NC(=O)CSc3nnc4c(C)cc5cc6c(cc5n34)OCCO6)n2)cc1
[19]
  IC50: > 32 µM (inactive)
[20]
  EC50: > 32 µM (inactive)
[21]
  IC50: > 32 µM (inactive)
[22]
  EC50: > 32 µM (inactive)
[23]
  EC50: > 32 µM (inactive)
[24]
  IC50: > 32 µM (inactive)
[25]
  EC50: > 32 µM (inactive)
